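Results reflect a 48-hour exposure of cells in 96-well plates to compound at five concentrations. The concentration for 50% growth inhibition is given as GI50. The concentration for full growth arrest is given as TGI.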
What was measured:
Test in all cases: NCI-60 cell line screen, 48 h
[1] = system: 786-0 renal
[2] = system: A498 renal
[3] = system: A549 NSCLC
[4] = system: ACHN renal
[5] = system: BT-549 breast
[6] = system: CAKI-1 renal
[7] = system: CCRF-CEM leukemia
[8] = system: COLO 205 colon
[9] = system: DU-145 prostate
[10] = system: EKVX NSCLC
[11] = system: HCC-2998 colon
[12] = system: HCT-116 colon
[13] = system: HCT-15 colon
[14] = system: HL-60(TB) leukemia
[15] = system: HOP-62 NSCLC
[16] = system: HOP-92 NSCLC
[17] = system: HS 578T breast
[18] = system: HT29 colon
[19] = system: IGROV1 ovarian
[20] = system: K-562 leukemia
[21] = system: KM12 colon
[22] = system: LOX IMVI melanoma
[23] = system: M14 melanoma
[24] = system: MALME-3M melanoma
[25] = system: MCF7 breast
[26] = system: MDA-MB-231 breast
[27] = system: MDA-MB-435
[28] = system: MOLT-4 leukemia
[29] = system: NCI-H226 lung

## C[C@@H](Nc1c(C#N)cnc2ccc(-c3cnc(N)nc3)cc12)c1ccccc1
[1]
  GI50: 1600 nM
  TGI: 36400 nM
[2]
  GI50: 301 nM
  TGI: 3480 nM
[3]
  GI50: 1550 nM
  TGI: 13700 nM
[4]
  GI50: 942 nM
  TGI: 40900 nM
[5]
  GI50: 1050 nM
  TGI: 6340 nM
[6]
  GI50: 781 nM
  TGI: 11600 nM
[7]
  GI50: 1890 nM
  TGI: > 100000 nM
[8]
  GI50: 3060 nM
  TGI: 13400 nM
[9]
  GI50: 1910 nM
  TGI: > 100000 nM
[10]
  GI50: 552 nM
  TGI: 5000 nM
[11]
  GI50: 2780 nM
  TGI: > 100000 nM
[12]
  GI50: 2460 nM
  TGI: 11100 nM
[13]
  GI50: 1740 nM
  TGI: 22600 nM
[14]
  GI50: 2070 nM
  TGI: > 100000 nM
[15]
  GI50: 1980 nM
  TGI: 27800 nM
[16]
  GI50: 185 nM
  TGI: 1110 nM
[17]
  GI50: 1190 nM
  TGI: 6820 nM
[18]
  GI50: 2430 nM
  TGI: > 100000 nM
[19]
  GI50: 454 nM
  TGI: 3870 nM
[20]
  GI50: 2490 nM
  TGI: > 100000 nM
[21]
  GI50: 2670 nM
  TGI: > 100000 nM
[22]
  GI50: 1640 nM
  TGI: 11000 nM
[23]
  GI50: 2800 nM
  TGI: 16700 nM
[24]
  GI50: 1590 nM
  TGI: 7830 nM
[25]
  GI50: 1150 nM
  TGI: 17300 nM
[26]
  GI50: 1820 nM
  TGI: 50400 nM
[27]
  GI50: 2610 nM
  TGI: > 100000 nM
[28]
  GI50: 1580 nM
  TGI: > 100000 nM
[29]
  GI50: 1810 nM
